Source: the Kinase Knowledgebase extract (Sharma et al. 2016)

Tests used:
[1] = biological target: PIK3CA (human) (UniProt P42336); experiment: Enzyme Assay
[2] = biological target: PIK3CD (Human) (UniProt O00329); experiment: Enzyme Assay
[3] = biological target: PIK3CG (human) (UniProt P48736); experiment: Enzyme Assay
[4] = biological target: PIK3CA (human) (UniProt P42336); experiment: Cell-Based Assay; conditions: rat-1
[5] = biological target: PIK3CD (Human) (UniProt O00329); experiment: Cell-Based Assay; conditions: rat-1

PIK3CA (human), sequence (P42336 whole entry, looked up): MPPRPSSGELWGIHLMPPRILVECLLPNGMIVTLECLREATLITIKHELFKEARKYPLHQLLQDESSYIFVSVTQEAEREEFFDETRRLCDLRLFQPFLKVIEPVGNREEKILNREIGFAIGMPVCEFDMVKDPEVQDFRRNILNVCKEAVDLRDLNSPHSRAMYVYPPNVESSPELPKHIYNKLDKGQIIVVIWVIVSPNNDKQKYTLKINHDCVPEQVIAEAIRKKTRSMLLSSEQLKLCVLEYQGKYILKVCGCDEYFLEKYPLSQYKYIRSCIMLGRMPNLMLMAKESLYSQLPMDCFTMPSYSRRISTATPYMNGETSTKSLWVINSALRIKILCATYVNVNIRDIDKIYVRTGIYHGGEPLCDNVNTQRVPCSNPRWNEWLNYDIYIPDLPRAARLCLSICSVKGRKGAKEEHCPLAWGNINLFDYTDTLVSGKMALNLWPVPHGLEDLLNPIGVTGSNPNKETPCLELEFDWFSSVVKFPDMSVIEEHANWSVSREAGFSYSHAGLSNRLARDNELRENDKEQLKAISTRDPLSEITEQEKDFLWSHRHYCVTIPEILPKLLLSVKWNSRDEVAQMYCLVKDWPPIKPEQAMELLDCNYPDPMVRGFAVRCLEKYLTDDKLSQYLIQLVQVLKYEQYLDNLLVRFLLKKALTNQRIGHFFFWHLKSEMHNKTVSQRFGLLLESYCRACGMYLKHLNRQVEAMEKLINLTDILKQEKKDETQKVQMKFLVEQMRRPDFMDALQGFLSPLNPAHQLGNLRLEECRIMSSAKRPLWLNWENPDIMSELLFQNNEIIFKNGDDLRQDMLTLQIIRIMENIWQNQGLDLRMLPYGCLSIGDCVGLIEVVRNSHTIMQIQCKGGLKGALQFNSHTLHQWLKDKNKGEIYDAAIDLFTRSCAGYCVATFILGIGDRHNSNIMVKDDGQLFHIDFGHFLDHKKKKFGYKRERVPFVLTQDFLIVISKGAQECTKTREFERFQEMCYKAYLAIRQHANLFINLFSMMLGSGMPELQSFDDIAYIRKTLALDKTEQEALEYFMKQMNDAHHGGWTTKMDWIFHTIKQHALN
PIK3CG (human), sequence (P48736 whole entry, looked up): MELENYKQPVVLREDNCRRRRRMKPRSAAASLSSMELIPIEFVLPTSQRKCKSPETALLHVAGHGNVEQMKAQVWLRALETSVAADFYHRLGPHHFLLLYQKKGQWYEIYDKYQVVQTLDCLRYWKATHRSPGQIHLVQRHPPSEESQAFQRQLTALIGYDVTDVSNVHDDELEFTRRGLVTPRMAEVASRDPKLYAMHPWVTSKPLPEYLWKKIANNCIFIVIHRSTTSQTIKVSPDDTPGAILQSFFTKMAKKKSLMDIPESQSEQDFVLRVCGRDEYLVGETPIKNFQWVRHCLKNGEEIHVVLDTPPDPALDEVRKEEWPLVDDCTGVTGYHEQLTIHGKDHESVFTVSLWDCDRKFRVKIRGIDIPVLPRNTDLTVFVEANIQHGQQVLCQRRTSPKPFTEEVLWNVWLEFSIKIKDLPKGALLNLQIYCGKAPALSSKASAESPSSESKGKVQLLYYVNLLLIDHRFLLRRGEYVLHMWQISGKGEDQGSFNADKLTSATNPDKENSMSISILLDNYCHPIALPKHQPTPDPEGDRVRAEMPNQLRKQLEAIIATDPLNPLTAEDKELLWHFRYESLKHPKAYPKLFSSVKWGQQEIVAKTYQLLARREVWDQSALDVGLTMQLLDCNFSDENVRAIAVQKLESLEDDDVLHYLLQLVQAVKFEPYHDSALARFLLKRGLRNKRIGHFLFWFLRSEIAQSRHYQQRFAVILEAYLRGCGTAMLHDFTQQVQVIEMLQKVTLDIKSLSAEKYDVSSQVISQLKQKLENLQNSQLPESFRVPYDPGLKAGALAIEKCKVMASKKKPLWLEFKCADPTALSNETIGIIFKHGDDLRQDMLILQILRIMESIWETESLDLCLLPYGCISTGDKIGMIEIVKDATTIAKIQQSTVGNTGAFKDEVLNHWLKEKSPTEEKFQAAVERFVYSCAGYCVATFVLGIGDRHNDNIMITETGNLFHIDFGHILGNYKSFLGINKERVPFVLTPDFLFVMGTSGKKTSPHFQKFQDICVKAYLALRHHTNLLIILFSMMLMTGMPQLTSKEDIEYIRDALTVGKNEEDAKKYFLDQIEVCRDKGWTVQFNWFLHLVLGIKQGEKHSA
PIK3CD (Human), sequence (O00329 whole entry, looked up): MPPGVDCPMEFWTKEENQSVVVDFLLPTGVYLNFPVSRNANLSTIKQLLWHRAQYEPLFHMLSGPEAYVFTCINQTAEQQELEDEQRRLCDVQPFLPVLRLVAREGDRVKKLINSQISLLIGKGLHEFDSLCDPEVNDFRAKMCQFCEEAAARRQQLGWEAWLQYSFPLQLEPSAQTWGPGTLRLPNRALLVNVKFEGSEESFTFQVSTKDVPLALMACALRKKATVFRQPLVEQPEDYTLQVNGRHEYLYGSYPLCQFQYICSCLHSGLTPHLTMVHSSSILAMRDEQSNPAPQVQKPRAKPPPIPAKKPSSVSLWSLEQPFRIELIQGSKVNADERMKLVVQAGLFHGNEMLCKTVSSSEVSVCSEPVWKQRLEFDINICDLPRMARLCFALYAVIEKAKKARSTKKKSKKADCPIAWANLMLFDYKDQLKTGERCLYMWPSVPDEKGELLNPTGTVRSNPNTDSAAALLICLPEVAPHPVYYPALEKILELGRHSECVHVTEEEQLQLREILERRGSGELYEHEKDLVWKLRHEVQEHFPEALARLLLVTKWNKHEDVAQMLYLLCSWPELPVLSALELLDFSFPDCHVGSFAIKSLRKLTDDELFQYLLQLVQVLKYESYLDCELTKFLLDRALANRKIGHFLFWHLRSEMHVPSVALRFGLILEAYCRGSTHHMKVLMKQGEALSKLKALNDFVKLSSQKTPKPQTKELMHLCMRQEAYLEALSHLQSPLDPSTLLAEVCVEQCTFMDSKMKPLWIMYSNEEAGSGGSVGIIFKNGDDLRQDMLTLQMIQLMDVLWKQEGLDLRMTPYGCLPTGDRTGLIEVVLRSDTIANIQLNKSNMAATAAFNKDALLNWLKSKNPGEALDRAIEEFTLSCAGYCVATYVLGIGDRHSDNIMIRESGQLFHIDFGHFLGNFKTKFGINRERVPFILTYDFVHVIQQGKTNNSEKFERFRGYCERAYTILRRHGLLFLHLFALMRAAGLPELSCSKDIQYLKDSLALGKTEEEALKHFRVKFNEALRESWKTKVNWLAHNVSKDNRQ

Structure (SMILES)	IC50 [1]	IC50 [2]	IC50 [3]	IC50 [4]	IC50 [5]
Cc1ccc(-n2c([C@@H]3CSCN3c3ncnc(N)c3C#N)nc3cccc(Cl)c3c2=O)s1	> 10000 nM	82 nM	1100 nM	> 10000 nM	262 nM
COC(=O)N1CC[C@H](n2c([C@@H]3CCCN3c3ncnc4[nH]cnc34)nc3cccc(Cl)c3c2=O)C1	9300 nM	440 nM	> 10000 nM	> 10000 nM	1150 nM
O=c1c2c(Cl)cccc2nc([C@@H]2CCCN2c2ncnc3[nH]cnc23)n1C1CCOCC1	4550 nM	59 nM	295 nM	> 10000 nM	179 nM
Cc1nc(N)c(C#N)c(N2CCC[C@H]2c2nc3cccc(C(F)(F)F)c3c(=O)n2-c2ccccc2)n1	> 10000 nM	43 nM	> 10000 nM	> 10000 nM	> 10000 nM
O=c1c2c(Cl)cccc2nc([C@@H]2CCCN2c2ncnc3[nH]cnc23)n1C1CCCCC1	> 10000 nM	12 nM	170 nM	> 10000 nM	121 nM
O=c1c2c(Cl)cccc2nc([C@@H]2CCON2c2ncnc3scnc23)n1-c1ccccc1	1500 nM	7 nM	81 nM	5990 nM	57 nM
CO[C@H]1C[C@@H](c2nc3cccc(Cl)c3c(=O)n2N2CCOCC2)N(c2nc(N)nc(C)c2C#N)C1	1230 nM	23 nM	53 nM	> 10000 nM	29 nM
Cc1c(F)ccc2nc([C@@H]3CCCN3c3ncnc(N)c3C#N)n(-c3ccccc3)c(=O)c12	700 nM	11 nM	120 nM	7160 nM	25 nM
N#Cc1c(N)ncnc1N1CCC[C@H]1c1nc2cccc(Cl)c2c(=O)n1-c1cccnc1	7700 nM	14 nM	150 nM	4590 nM	12 nM
Cc1nc(N)nc(N2CCC[C@H]2c2nc3ccc(F)c(C)c3c(=O)n2-c2ccccc2)c1C#N	370 nM	17 nM	49 nM	2090 nM	42 nM
CC1(n2c([C@@H]3CCCN3c3ncnc4[nH]cnc34)nc3cccc(Cl)c3c2=O)CC1	580 nM	7 nM	490 nM	2150 nM	7 nM
CS(=O)(=O)N1CC[C@@H](n2c([C@@H]3CCCN3c3ncnc4[nH]cnc34)nc3cccc(Cl)c3c2=O)C1	> 10000 nM	210 nM	3700 nM	> 10000 nM	–
O=c1c2c(Cl)cccc2nc([C@@H]2CCCN2c2ncnn3ccnc23)n1-c1ccccc1	4670 nM	34 nM	103 nM	5150 nM	56 nM
N#Cc1c(N)ncnc1N1CCC[C@H]1c1nc2cccc(Cl)c2c(=O)n1N1CCOCC1	1600 nM	11 nM	200 nM	> 10000 nM	20 nM
Cc1nc(N)nc(N2CCC[C@H]2c2nc3cccc(Cl)c3c(=O)n2C2CC2)c1C#N	930 nM	31 nM	110 nM	1160 nM	61 nM
O=c1c2c(Cl)cccc2nc([C@@H]2CCON2c2ncnc3[nH]cnc23)n1-c1ccccc1	–	150 nM	980 nM	> 10000 nM	1810 nM
Cn1nccc1-n1c([C@@H]2CSCN2c2ncnc3[nH]cnc23)nc2cccc(Cl)c2c1=O	–	56 nM	420 nM	> 10000 nM	222 nM
Nc1nc(N2C[C@@H](O)C[C@H]2c2nc3cccc(Cl)c3c(=O)n2-c2ccccc2)c2nccn2n1	1000 nM	15 nM	31 nM	–	–
O=c1c2c(Cl)cccc2nc([C@@H]2CCCN2c2ncnc3[nH]cnc23)n1[C@@H]1CCN(S(=O)(=O)C2CC2)C1	> 10000 nM	510 nM	5600 nM	> 10000 nM	–
